Laboratory results taken from patent US20260166162A1, “CARBON CHAIN SUBSTANCE FOR REGULATING TRANSMEMBRANE TRANSPORT AND FLUIDITY OF CELL MEMBRANES, AND PREPARATION AND USE THEREOF” (priority 2022, published 2026).
Several values for one entry are separate records, joined by “and”; a condition that tells them apart may be missing. Equal values may be shown once. Read-outs that look alike come from different tables or passages of the source.

Legend:
IL-6 = experiment: Skin photoaging (UVB) in BALB/c nude mice, serum IL-6 (Example II-54, Table II-34); type: in vivo, mouse; details: serum, UVB-irradiated BALB/c nude mice, 40 days
TNF-α = experiment: Skin photoaging (UVB) in BALB/c nude mice, serum TNF-α (Example II-54, Table II-32); type: in vivo, mouse; details: UVB-irradiated BALB/c nude mice, 40 days
IL-1β = experiment: Skin photoaging (UVB) in BALB/c nude mice, serum IL-1β (Example II-54, Table II-33); type: in vivo, mouse; details: serum, UVB-irradiated BALB/c nude mice, 40 days
293T cells = experiment: Cellular phagocytosis of DiD-loaded lipid vesicles (nano-drugs) by 293T cells (Example II-51, Table II-29); type: cell-based; details: 293T cells pretreated 4 h, DiD lipid vesicles 2 h, n=3, untreated control 226.46 ± 1.26
rabies pseudovirus = type: cell-based
[1] = system: SARS-CoV-2 pseudovirus (B.1.526.2); type: cell-based
[2] = system: HPV pseudovirus (HPV6-GFP); type: cell-based; details: 293FT cells pretreated 4 h, n=3
Neocopyovirus = type: in vivo; details: 1 mM; n=3

CCC=CCC=CCC=CCCCCCCCC(=O)OCC(N)C(=O)O (stereo not drawn) [Ser-linolenic acid]
IL-6 (IL-6; 30 μM smeared): 29 pg/mL | IL-6 (IL-6; 50 μM smeared): 33 pg/mL | IL-6 (IL-6; 100 μM smeared): 31 pg/mL | TNF-α (TNF-α; 30 μM smeared): 51 pg/mL | TNF-α (TNF-α; 50 μM smeared): 49 pg/mL | TNF-α (TNF-α; 100 μM smeared): 47 pg/mL | IL-1β (IL-1β; 30 μM smeared): 62 pg/mL | IL-1β (IL-1β; 50 μM smeared): 53 pg/mL | IL-1β (IL-1β; 100 μM smeared): 58 pg/mL

Glucose-oleic acid
Fluorescence intensity (293T cells; 2 nM): 102.16 ± 8.65 | Fluorescence intensity (293T cells; 5 nM): 92.37 ± 4.56 | Fluorescence intensity (293T cells; 10 nM): 65.99 ± 6.23 | Fluorescence intensity (293T cells; 100 nM): 71.02 ± 4.02 | Fluorescence intensity (293T cells; 1 uM): 436.71 ± 15.66 | Fluorescence intensity (293T cells; 10 uM): 216.29 ± 5.24 | Fluorescence intensity (293T cells; 50 uM): 42.89 ± 2.32 | Fluorescence intensity (293T cells; 100 uM): 26.41 ± 5.32 | Inhibition rate (%) (rabies pseudovirus; 0.002 µM): 50.11 ± 3.11% | Inhibition rate (%) (rabies pseudovirus; 0.005 µM): 65.69 ± 6.69% | Inhibition rate (%) (rabies pseudovirus; 0.01 µM): 80.35 ± 2.06% | Inhibition rate (%) (rabies pseudovirus; 0.05 µM): 72.37 ± 3.37% | Inhibition rate (%) (rabies pseudovirus; 0.1 µM): 71.05 ± 2.54% | Inhibition rate (%) (rabies pseudovirus; 1 µM): -14.84 ± 1.54% | Inhibition rate (%) (rabies pseudovirus; 10 µM): -33.5 ± 2.54% | Inhibition rate (%) (rabies pseudovirus; 50 µM): 70.04 ± 5.07% | Inhibition rate (%) (rabies pseudovirus; 100 µM): 80.21 ± 5.30%

Adenosine-erucic acid [Adenosine-C22-1]
Fluorescence intensity (293T cells; 2 nM): 112.01 ± 8.24 and 99.55 ± 5.66 | Fluorescence intensity (293T cells; 5 nM): 89.09 ± 4.19 and 46.06 ± 5.06 | Fluorescence intensity (293T cells; 1 uM): 278.16 ± 8.15 and 299.00 ± 23.21 | Fluorescence intensity (293T cells; 10 uM): 326.69 ± 10.13 and 171.00 ± 14.23 | Inhibition rate (%) ([1]; 0.002 µM): 50.54 ± 1.57% | Inhibition rate (%) ([1]; 0.005 µM): 60.66 ± 1.59% | Inhibition rate (%) ([1]; 0.01 µM): 58.34 ± 1.25% | Inhibition rate (%) ([1]; 0.05 µM): 57.33 ± 1.58% | Inhibition rate (%) ([1]; 0.1 µM): 64.66 ± 8.23% | Inhibition rate (%) ([1]; 1 µM): -22.83 ± 0.93% | Inhibition rate (%) ([1]; 10 µM): -44.26 ± 1.26% | Inhibition rate (%) ([1]; 50 µM): 81.44 ± 0.54% | Inhibition rate (%) ([1]; 100 µM): 90.08 ± 1.21% | Inhibition rate (%) ([2]; 2 nM): 80.11 ± 3.66% | Inhibition rate (%) ([2]; 5 nM): 85.69 ± 4.23% | Inhibition rate (%) ([2]; 10 nM): 90.35 ± 4.69% | Inhibition rate (%) ([2]; 50 nM): 92.37 ± 3.35% | Inhibition rate (%) ([2]; 100 nM): 94.75 ± 1.67% | Inhibition rate (%) ([2]; 1 μM): 32.83 ± 2.37% | Inhibition rate (%) ([2]; 10 μM): 54.26 ± 1.83% | Inhibition rate (%) ([2]; 50 μM): 91.84 ± 3.95% | Inhibition rate (%) ([2]; 100 μM, negative value = promotes infection): 94.11 ± 2.69%

Glucosamine-docosahexaenoic acid
Fluorescence intensity (Neocopyovirus): 3.1 ± 0.65

CCC=CCC=CCC=CCC=CCC=CCCCC(=O)OCC(N)C(=O)O (stereo not drawn) [Serine-EPA]
Fluorescence intensity (Neocopyovirus): 4.8 ± 0.96

Ascorbic acid-eicosapentaenoic acid
Fluorescence intensity (Neocopyovirus): 2.9 ± 0.68
